The text below walks through data of publication PMC4097383 (Drug and alcohol dependence, 2013).

For data set [1], the target named is T1, human cardiac calsequestrin (CASQ2) (Homo sapiens, UniProt O14958).
T1 sequence (O14958 20-399): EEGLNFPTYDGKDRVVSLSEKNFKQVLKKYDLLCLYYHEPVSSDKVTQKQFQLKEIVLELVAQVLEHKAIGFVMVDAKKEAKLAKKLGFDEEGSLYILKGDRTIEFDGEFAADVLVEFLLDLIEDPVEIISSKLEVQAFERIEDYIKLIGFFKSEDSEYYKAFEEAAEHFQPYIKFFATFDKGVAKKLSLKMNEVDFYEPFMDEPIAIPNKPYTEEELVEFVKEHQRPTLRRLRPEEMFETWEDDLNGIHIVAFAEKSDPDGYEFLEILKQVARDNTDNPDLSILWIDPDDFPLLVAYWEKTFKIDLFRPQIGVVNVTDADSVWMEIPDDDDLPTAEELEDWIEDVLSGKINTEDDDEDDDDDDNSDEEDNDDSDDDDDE
In words: isothermal titration calorimetry. In kind it is binding. For orientation: ITC needs no label: the signal is the heat of the interaction.

Data set [2] has as its target T1, human cardiac calsequestrin (CASQ2). Briefly: equilibrium dialysis and atomic absorption spectroscopy. The data set is classed as biochemical. The settings on record: 350 μM cocaine, 1 mg/mL CASQ2, 1 h preincubation.
The data set “SEC-MALS” concerns the molecule itself. In words: SEC-MALS. Background: Size exclusion chromatography separates by hydrodynamic size, large species first.

For orientation: Kd means the constant that tells how readily two partners part at equilibrium. Read a high Kd as lower affinity. On to `COC(=O)[C@H]1[C@@H](OC(=O)c2ccccc2)C[C@@H]2CC[C@H]1N2C` [cocaine], for which, in data set [1], the Kd was 63.5 ± 2.7 µM. Besides, the “% reduction in Ca2+ binding capacity at 350 μM” value in data set [2] is ~ 50%.

B1: human cardiac calsequestrin (CASQ2) (natural protein)
chain: GLNFPTYDGKDRVVSLSEKNFKQVLKKYDLLCLYYHEPVSSDKVTQKQFQLKEIVLELVAQVLEHKAIGFVMVDAKKEAKLAKKLGFDEEGSLYILKGDRTIEFDGEFAADVLVEFLLDLIEDPVEIISSKLEVQAFERIEDYIKLIGFFKSEDSEYYKAFEEAAEHFQPYIKFFATFDKGVAKKLSLKMNEVDFYEPFMDEPIAIPNKPYTEEELVEFVKEHQRPTLRRLRPEEMFETWEDDLNGIHIVAFAEKSDPDGYEFLEILKQVARDNTDNPDLSILWIDPDDFPLLVAYWEKTFKIDLFRPQIGVVNVTDADSVWMEIPDDDDLPTAEELEDWIEDVLSGKINTEDDDEDDDDDDNSDEEDNDDSDDDDDE
Usually stoichiometry N stands for the number of molecules, sites or subunits per partner or assembly. On to B1, for which, in the data set “SEC-MALS”, the “stoichiometry N” value was 2.
